Measured values published in patent US20090227607A1, “DEAZAPURINES USEFUL AS INHIBITORS OF JANUS KINASES” (priority 2006, published 2009).

How the values were obtained:
JAK3 = molecular target: T1, JAK3 (Homo sapiens, UniProt P52333); test: JAK3 Inhibition Assay; format: biochemical; conditions: 1 μM poly(Glu)4Tyr, 5 μM ATP, 1 nM JAK3, 25° C.; read-out: JAK3 enzyme inhibition data (Ki)
T1 sequence (P52333 1-1124): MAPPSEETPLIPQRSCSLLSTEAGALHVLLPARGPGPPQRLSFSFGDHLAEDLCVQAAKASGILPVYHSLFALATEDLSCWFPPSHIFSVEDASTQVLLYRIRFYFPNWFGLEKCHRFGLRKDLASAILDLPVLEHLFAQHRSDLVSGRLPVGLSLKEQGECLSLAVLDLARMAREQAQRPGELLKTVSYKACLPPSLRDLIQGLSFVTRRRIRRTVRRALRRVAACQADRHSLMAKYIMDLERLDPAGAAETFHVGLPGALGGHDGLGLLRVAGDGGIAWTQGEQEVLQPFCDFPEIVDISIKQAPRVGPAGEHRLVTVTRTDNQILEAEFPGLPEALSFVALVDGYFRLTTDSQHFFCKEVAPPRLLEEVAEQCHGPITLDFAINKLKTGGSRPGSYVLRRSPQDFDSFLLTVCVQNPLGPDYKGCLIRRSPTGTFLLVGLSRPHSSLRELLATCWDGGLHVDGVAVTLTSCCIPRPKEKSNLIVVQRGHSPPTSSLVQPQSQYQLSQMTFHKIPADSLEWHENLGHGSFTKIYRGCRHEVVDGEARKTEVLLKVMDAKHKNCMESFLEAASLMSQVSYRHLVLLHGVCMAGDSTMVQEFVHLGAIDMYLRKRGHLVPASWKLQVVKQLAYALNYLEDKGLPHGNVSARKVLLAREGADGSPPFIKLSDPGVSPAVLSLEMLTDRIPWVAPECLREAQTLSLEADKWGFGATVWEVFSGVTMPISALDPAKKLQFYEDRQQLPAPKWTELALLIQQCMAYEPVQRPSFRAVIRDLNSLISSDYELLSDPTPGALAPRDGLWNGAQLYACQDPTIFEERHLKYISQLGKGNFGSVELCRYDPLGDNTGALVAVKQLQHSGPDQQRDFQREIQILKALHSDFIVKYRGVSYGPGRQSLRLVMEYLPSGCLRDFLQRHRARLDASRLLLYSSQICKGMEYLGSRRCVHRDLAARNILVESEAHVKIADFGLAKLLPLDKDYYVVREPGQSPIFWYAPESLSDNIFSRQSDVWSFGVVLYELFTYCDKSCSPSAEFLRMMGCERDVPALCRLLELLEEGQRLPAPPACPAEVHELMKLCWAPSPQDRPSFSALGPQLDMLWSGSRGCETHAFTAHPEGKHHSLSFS
Summary of the method: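 Radiometric JAK3 (1 nM) reaction with 5 μM [33P]ATP and 1 μM poly(Glu)4Tyr in HEPES pH 7.4 buffer, run for 20 min at 25 °C. Reactions were stopped with TCA and filter-captured, and 33P incorporation was counted; values reported as Ki.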

JAK-2 enzyme = JAK-2 enzyme (Homo sapiens, UniProt O60674); test: JAK2 Inhibition Assay; format: biochemical; conditions: 15 μM poly(Glu)4Tyr, 12 μM ATP, 25° C.
JAK-2 enzyme, sequence (O60674 whole entry, species assumed): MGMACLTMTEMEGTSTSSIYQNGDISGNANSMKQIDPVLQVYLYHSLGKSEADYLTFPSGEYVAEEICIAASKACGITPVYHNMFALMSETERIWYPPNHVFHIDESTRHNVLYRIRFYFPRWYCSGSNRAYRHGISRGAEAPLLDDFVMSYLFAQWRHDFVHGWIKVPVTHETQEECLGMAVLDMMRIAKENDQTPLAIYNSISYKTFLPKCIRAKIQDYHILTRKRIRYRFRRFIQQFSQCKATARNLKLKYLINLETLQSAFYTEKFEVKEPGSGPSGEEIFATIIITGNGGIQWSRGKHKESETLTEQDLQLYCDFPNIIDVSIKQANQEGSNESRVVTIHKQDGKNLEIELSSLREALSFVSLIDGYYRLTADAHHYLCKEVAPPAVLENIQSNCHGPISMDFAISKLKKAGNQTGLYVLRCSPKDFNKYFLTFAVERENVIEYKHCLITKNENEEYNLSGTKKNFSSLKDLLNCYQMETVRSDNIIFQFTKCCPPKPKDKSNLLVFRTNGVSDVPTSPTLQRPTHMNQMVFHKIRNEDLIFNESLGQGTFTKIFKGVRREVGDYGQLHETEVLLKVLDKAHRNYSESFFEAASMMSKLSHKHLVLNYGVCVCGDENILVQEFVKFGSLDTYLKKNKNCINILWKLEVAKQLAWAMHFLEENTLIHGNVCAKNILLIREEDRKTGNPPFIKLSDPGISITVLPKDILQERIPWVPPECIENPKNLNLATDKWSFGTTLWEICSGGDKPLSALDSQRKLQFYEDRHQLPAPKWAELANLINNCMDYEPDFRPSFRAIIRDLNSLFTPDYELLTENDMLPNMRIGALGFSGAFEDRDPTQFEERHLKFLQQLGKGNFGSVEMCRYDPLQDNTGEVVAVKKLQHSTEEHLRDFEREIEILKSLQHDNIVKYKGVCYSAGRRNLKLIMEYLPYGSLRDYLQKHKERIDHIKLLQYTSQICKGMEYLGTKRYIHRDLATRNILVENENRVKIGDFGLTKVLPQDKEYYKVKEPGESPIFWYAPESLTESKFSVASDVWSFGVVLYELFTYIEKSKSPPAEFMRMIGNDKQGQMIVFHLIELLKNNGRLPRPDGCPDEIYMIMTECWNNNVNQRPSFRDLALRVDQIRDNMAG
Summary of the method: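 JAK2 kinase in HEPES pH 7.4 buffer with MgCl2, DTT, NaCl and BSA; final 15 μM poly(Glu)4Tyr and 12 μM [33P]ATP. Enzyme added to start, 20 min at 25 °C, TCA stop, filter capture and scintillation count of 33P incorporation; Ki values.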

Row | SMILES | Ki (JAK3) | Ki (JAK-2 enzyme)
1 | CCCCN(CC)C(=O)c1cc(-c2ncnc3[nH]ccc23)cn1C [Compound 232] | 100 to 500 nM | < 100 nM
2 | COCCN(C)C(=O)c1cc(-c2ncnc3[nH]ccc23)cn1C [Compound 233] | 500 to 5000 nM | < 100 nM
3 | CCCN(C)C(=O)c1cc(-c2ncnc3[nH]ccc23)cn1C [Compound 234] | 500 to 5000 nM | < 100 nM
4 | Cn1cc(-c2ncnc3[nH]ccc23)cc1C(=O)NCC(F)(F)F [Compound 235] | < 100 nM | < 100 nM
5 | CCN(CCC#N)C(=O)c1cc(-c2ncnc3[nH]ccc23)cn1C [Compound 237] | < 100 nM | < 100 nM
6 | Cn1cc(-c2ncnc3[nH]ccc23)cc1C(=O)N(CC1CCC1)CC(F)(F)F [Compound 238] | 100 to 500 nM | < 100 nM
7 | O=C(c1cc(-c2ncnc3[nH]cc(Cl)c23)c[nH]1)N(CC1CCC1)CC(F)(F)F [Compound 240] | < 100 nM | < 100 nM
8 | O=C(c1cc(-c2ncnc3[nH]cc(Cl)c23)c[nH]1)N(CCC(F)(F)F)CC1CCC1 [Compound 241] | 100 to 500 nM | < 100 nM
9 | N#CCCN(CCC(F)(F)F)C(=O)c1cc(-c2ncnc3[nH]cc(Cl)c23)c[nH]1 [Compound 242] | < 100 nM | < 100 nM
10 | CC(C)CN(CCC#N)C(=O)c1cc(-c2ncnc3[nH]cc(Cl)c23)c[nH]1 [Compound 243] | < 100 nM | < 100 nM
11 | CC(C)CN(CCC(F)(F)F)C(=O)c1cc(-c2ncnc3[nH]cc(Cl)c23)c[nH]1 [Compound 244] | 100 to 500 nM | < 100 nM
12 | C=CCN(CC=C)C(=O)c1cc(-c2ncnc3[nH]ccc23)co1 [Compound 245] | 100 to 500 nM | < 100 nM
13 | CC[C@@H]1CC[C@@H](CC)N1C(=O)c1cc(-c2ncnc3[nH]ccc23)co1 [Compound 246] | 100 to 500 nM | < 100 nM
14 | CC(C)N(CCC(F)(F)F)C(=O)c1cc(-c2ncnc3[nH]ccc23)co1 [Compound 247] | 500 to 5000 nM | 100 to 500 nM
15 | C=CCN(C(=O)c1cc(-c2ncnc3[nH]ccc23)co1)[C@@H](C)c1ccccc1 [Compound 248] | 100 to 500 nM | < 100 nM
16 | O=C(c1cc(-c2ncnc3[nH]ccc23)co1)N(CCC(F)(F)F)CC1CCC1 [Compound 250] | 100 to 500 nM | < 100 nM
17 | O=C(c1cc(-c2ncnc3[nH]ccc23)co1)N(CC1CCC1)CC(F)(F)F [Compound 251] | 100 to 500 nM | 100 to 500 nM
18 | CC(C)CN(CCC(F)(F)F)C(=O)c1cc(-c2ncnc3[nH]ccc23)co1 [Compound 252] | 100 to 500 nM | 100 to 500 nM
19 | C=CC(=O)c1c[nH]c2ncnc(-c3ccoc3)c12 [Compound 253] | 100 to 500 nM | 500 to 5000 nM
